Earlier results in article PMC7196435 (Bioorganic & medicinal chemistry letters, 2020).

System: CYP46A1
Settings: at 1 μM concentration

SMILES: O=C(NCc1ccccc1)N1CCN(c2cncnc2-c2ccccc2)CC1 [compound 1]
- inhibitory activity towards CYP46A1: 95%
